From patent US20070021434A1, “NON-NUCLEOSIDE ANTI-HEPACIVIRUS AGENTS AND USES THEREOF” (Migenix Inc., priority 2005, published 2007)

biological target: HCV RdRp (NS5B) (UniProt P26663); type: biochemical, hepatitis C virus
Sequence (P26663 whole entry, looked up): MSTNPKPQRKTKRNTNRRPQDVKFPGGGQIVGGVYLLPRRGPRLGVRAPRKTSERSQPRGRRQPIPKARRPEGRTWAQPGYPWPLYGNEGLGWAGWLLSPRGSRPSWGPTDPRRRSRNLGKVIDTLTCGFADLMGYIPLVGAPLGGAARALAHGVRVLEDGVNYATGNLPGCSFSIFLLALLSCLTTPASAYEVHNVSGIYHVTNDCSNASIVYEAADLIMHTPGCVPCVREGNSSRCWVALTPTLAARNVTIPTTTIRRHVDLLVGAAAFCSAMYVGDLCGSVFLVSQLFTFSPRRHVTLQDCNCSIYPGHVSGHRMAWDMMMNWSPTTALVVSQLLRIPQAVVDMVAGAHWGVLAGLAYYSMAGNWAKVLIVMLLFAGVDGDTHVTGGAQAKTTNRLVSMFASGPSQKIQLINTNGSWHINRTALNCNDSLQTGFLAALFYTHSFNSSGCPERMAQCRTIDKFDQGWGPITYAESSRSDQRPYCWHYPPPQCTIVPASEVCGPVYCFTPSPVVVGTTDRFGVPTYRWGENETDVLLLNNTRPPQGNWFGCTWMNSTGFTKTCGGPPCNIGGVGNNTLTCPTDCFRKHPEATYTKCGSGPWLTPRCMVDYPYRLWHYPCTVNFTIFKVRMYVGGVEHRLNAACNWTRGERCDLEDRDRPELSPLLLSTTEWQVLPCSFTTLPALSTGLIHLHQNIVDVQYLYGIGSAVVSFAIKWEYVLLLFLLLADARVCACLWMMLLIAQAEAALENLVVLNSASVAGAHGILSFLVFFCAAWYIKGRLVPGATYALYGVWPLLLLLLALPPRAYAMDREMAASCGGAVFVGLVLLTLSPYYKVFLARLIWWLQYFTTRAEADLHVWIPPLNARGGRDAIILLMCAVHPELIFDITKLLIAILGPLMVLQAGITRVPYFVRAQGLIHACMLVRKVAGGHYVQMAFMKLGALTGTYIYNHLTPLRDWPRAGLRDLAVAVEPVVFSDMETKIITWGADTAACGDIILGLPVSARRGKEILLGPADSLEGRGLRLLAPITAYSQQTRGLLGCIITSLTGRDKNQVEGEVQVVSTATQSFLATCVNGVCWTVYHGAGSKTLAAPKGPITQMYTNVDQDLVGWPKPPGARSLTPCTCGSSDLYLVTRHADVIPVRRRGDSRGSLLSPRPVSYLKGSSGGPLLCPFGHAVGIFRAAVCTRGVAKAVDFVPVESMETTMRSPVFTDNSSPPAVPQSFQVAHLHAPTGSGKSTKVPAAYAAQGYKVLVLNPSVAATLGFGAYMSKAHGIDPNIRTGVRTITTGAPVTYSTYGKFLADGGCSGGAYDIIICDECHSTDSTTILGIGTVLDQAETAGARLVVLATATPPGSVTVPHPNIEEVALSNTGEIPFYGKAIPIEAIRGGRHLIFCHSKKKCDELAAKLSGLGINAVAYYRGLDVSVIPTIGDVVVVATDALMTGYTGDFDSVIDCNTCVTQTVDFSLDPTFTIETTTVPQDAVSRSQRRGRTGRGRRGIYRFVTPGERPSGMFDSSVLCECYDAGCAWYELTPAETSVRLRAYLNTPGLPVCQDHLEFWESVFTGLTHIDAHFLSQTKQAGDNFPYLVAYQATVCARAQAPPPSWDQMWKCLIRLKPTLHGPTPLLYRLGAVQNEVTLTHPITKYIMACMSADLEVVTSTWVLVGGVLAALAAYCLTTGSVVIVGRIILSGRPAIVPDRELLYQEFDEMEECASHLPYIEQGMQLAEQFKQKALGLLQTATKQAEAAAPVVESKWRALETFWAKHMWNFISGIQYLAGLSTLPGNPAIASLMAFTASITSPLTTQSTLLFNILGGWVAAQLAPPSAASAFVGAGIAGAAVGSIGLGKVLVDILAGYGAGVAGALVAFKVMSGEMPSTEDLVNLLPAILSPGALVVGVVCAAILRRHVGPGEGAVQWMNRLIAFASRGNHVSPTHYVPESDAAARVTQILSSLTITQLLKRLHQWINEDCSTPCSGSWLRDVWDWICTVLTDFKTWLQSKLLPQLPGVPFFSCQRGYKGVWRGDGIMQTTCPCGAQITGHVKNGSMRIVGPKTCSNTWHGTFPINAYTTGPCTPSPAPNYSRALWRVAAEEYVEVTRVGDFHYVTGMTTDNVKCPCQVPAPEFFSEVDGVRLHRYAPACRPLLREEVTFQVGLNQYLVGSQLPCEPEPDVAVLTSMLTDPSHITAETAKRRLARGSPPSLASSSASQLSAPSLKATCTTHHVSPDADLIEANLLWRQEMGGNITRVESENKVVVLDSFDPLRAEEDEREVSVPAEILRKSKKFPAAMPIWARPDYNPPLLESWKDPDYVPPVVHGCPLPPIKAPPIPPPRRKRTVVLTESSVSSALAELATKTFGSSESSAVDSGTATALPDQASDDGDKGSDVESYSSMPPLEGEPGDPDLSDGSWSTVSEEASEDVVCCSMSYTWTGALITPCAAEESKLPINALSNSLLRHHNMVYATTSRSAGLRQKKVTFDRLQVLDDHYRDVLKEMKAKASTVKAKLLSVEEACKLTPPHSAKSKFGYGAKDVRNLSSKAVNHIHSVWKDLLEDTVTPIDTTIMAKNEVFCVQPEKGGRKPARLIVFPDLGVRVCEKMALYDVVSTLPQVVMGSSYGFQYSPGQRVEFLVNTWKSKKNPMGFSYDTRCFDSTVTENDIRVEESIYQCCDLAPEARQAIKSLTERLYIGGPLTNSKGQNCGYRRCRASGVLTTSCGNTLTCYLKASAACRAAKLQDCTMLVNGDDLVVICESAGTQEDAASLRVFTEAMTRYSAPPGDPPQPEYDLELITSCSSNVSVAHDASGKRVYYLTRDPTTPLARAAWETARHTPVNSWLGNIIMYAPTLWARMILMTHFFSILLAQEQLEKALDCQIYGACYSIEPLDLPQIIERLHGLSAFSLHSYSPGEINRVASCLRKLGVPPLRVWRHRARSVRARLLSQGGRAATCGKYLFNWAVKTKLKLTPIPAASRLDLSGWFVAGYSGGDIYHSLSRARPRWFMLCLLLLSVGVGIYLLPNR

`CC(C)(NC(=O)c1ccc(C(=O)O)cc1)C(=O)Nc1ccc(CN(C(=O)c2ccco2)C2CCCCC2)cc1` [Compound 4, N-[1-(4-{[CYCLOHEXYL-(FURAN-2-CARBONYL)-AMINO]-METHYL}-PHENYLCARBAMOYL)-1-METHYL-ETHYL]-TERE[…]] and `COC(=O)c1ccc(C(=O)NC(C)(C)C(=O)Nc2ccc(CN(C(=O)c3ccco3)C3CCCCC3)cc2)cc1` [Compound 3, N-[1-(4-{[CYCLOHEXYL-(FURAN-2-CARBONYL)-AMINO]-METHYL}-PHENYLCARBAMOYL)-1-METHYL-ETHYL]-TERE[…] METHYL ESTER] cannot be ordered by IC50: > 50 µM for the first, > 50 µM for the second.

`Cc1ccc(NC(=O)C(CCCCN)NC(=O)COc2cccc(C(F)(F)F)c2)cc1` [Compound 332, (S)-6-AMINO-2-[2-(3-TRIFLUOROMETHYL-PHENOXY)-ACETYLAMINO]-HEXANOIC ACID P-TOLYLAMIDE] and `Cc1ccc(NC(=O)[C@H](CCCCN)NC(=O)COc2ccc(Cl)cc2)cc1` [Compound 331, (S)-6-AMINO-2-[2-(4-CHLORO-PHENOXY)-ACETYLAMINO]-HEXANOIC ACID P-TOLYLAMIDE] cannot be ordered by IC50: > 50 µM for the first, > 50 µM for the second.

`Cc1ccc(NC(=O)C(CCCCN)NS(=O)(=O)c2ccc(S(=O)(=O)c3ccccc3)s2)cc1` [Compound 389, (S)-6-AMINO-2-(5-BENZENESULFONYL-THIOPHENE-2-SULFONYLAMINO)-HEXANOIC ACID P-TOLYLAMIDE] and `Cc1ccc(NC(=O)C(CCCCN)NC(=O)c2ccc(C)c3ccccc23)cc1` [Compound 62, (S)-4-METHYL-NAPHTHALENE-1-CARBOXYLIC ACID (5-AMINO-1-P-TOLYLCARBAMOYL-PENTYL)-AMIDE] cannot be ordered by IC50: > 50 µM for the first, > 50 µM for the second.

Compared with `Cc1ccc(NC(=O)[C@H](CCCCN)NC(=O)Nc2ccc(F)cc2)cc1` [Compound 43, (S)-6-AMINO-2-[3-(4-FLUORO-PHENYL)-UREIDO]-HEXANOIC ACID P-TOLYLAMIDE], `Cc1ccc(NC(=O)[C@H](CCCCN)NC(=O)Nc2ccc(OCc3ccccc3)c(Cl)c2)cc1` [Compound 253, (S)-6-AMINO-2-[3-(4-BENZYLOXY-3-CHLORO-PHENYL)-UREIDO]-HEXANOIC ACID P-TOLYLAMIDE] is lower in IC50: > 50 µM for the first, 10 to 50 µM for the second.

First: Cc1cc2cc(NC(=O)[C@H](Cc3ccc(CN)cc3)NC(=O)Nc3ccc4c(c3)Cc3ccccc3-4)ccc2[nH]1 [Compound 235, (S)-3-(4-AMINOMETHYL-PHENYL)-2-[3-(9H-FLUOREN-2-YL)-UREIDO]-N-(2-METHYL-1H-INDOL-5-YL)-PROPIONAMIDE]
Second: CC(C)(C)c1ccc(NC(=O)[C@H](CCCCN)NC(=O)OCC2c3ccccc3-c3ccccc32)cc1 [Compound 105, (S)-[5-AMINO-1-(4-TERT-BUTYL-PHENYLCARBAMOYL)-PENTYL]-CARBAMIC ACID 9H-FLUOREN-9-YLMETHYL ESTER]
The IC50 of the first is lower: < 10 µM for the first, 10 to 50 µM for the second. The first is the more potent here.

`Cc1ccc(NC(=O)[C@H](CCCCN)NC(=O)CNC2Cc3ccccc3C2)cc1` [Compound 336, (S)-6-AMINO-2-[2-(INDAN-2-YLAMINO)-ACETYLAMINO]-HEXANOIC ACID P-TOLYLAMIDE] and `Cc1ccc(NC(=O)C(CCCCN)NC(=O)CNCc2ccccc2C)cc1` [Compound 338, (S)-6-AMINO-2-[2-(2-METHYL-BENZYLAMINO)-ACETYLAMINO]-HEXANOIC ACID P-TOLYLAMIDE] cannot be ordered by IC50: > 50 µM for the first, > 50 µM for the second.

Compared with `NCCCC[C@H](NC(=O)OCC1c2ccccc2-c2ccccc21)C(=O)Nc1cc(-c2ccccc2)n[nH]1` [Compound 267, (S)-[5-AMINO-1-(5-PHENYL-2H-PYRAZOL-3-YLCARBAMOYL)-PENTYL]-CARBAMIC ACID 9H-FLUOREN-9-YLMETHYL ESTER], `NCCCC[C@@H](NC(=O)NC1c2ccccc2-c2ccccc21)C(=O)Nc1ccc(C2CCCCC2)cc1` [Compound 195, (R)-6-AMINO-2-[3-(9H-FLUOREN-9-YL)-UREIDO]-HEXANOIC ACID (4-CYCLOHEXYL-PHENYL)-AMIDE] is lower in IC50: 10 to 50 µM for the first, < 10 µM for the second. The second is the more potent here.

`O=C(CC1CNCCN1C(=O)NCc1ccc(Cl)c(Cl)c1)Nc1ccc(C2CCCCC2)cc1` (stereo not drawn) [Compound 160, 2-[(4-CYCLOHEXYL-PHENYLCARBAMOYL)-METHYL]-PIPERAZINE-1-CARBOXYLIC ACID 3,4-DICHLORO-BENZYLAMIDE] was tested, and the IC50 was 10 to 50 µM.
